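96-well plates; 48 h exposure; 5 concentrations. Endpoints by linear interpolation between flanking doses. Not reached: highest tested concentration assigned. GI50: concentration for 50% inhibition of growth.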 Active and inactive are the calls of the source. Cut-off read from the data, not from the text of the source: active = GI50 up to about 1.1 µM and inactive = higher.
Legend:
Test in all cases: NCI-60 cell line screen, 48 h
KM12 = test system: KM12
HOP-62 = test system: HOP-62
OVCAR-4 = test system: OVCAR-4
UACC-62 = test system: UACC-62
COLO 205 = test system: COLO 205
SF-539 = test system: SF-539
DU-145 = test system: DU-145
LOX IMVI = test system: LOX IMVI
SK-OV-3 = test system: SK-OV-3
NCI/ADR-RES = test system: NCI/ADR-RES
ACHN = test system: ACHN
MDA-MB-231 = test system: MDA-MB-231
CAKI-1 = test system: CAKI-1
SK-MEL-2 = test system: SK-MEL-2
MDA-MB-435 = test system: MDA-MB-435
EKVX = test system: EKVX
BT-549 = test system: BT-549
SNB-19 = test system: SNB-19
OVCAR-3 = test system: OVCAR-3
RXF 393 = test system: RXF 393

| SMILES | GI50 (KM12) | GI50 (HOP-62) | GI50 (OVCAR-4) | GI50 (UACC-62) | GI50 (COLO 205) | GI50 (SF-539) | GI50 (DU-145) | GI50 (LOX IMVI) | GI50 (SK-OV-3) | GI50 (NCI/ADR-RES) | GI50 (ACHN) | GI50 (MDA-MB-231) | GI50 (CAKI-1) | GI50 (SK-MEL-2) | GI50 (MDA-MB-435) | GI50 (EKVX) | GI50 (BT-549) | GI50 (SNB-19) | GI50 (OVCAR-3) | GI50 (RXF 393) |
| --- | --- | --- | --- | --- | --- | --- | --- | --- | --- | --- | --- | --- | --- | --- | --- | --- | --- | --- | --- | --- |
| CCCCCCCCCOC(=O)c1cnc(Cl)cn1 | 17.5 µM (inactive) | 24 µM (inactive) | 27.9 µM (inactive) | 18.1 µM (inactive) | 22.2 µM (inactive) | 25.8 µM (inactive) | 19.6 µM (inactive) | 19.8 µM (inactive) | 34.9 µM (inactive) | 22.2 µM (inactive) | 19.4 µM (inactive) | 18.5 µM (inactive) | 16.9 µM (inactive) | 22.1 µM (inactive) | 19.9 µM (inactive) | 22.3 µM (inactive) | 26.5 µM (inactive) | 20.9 µM (inactive) | – | – |
| CCOC(=O)C(CS)NC(=O)CCCCCCCC(=O)NC(CS)C(=O)OCC (stereo not drawn) | > 100 µM (inactive) | > 100 µM (inactive) | > 100 µM (inactive) | > 100 µM (inactive) | > 100 µM (inactive) | > 100 µM (inactive) | > 100 µM (inactive) | 86.9 µM (inactive) | > 100 µM (inactive) | > 100 µM (inactive) | > 100 µM (inactive) | > 100 µM (inactive) | > 100 µM (inactive) | 36.9 µM (inactive) | > 100 µM (inactive) | > 100 µM (inactive) | > 100 µM (inactive) | 37.4 µM (inactive) | > 100 µM (inactive) | – |
| Nn1c(Cc2ccc([N+](=O)[O-])cc2)n[nH]c1=O | > 100 µM (inactive) | > 100 µM (inactive) | > 100 µM (inactive) | > 100 µM (inactive) | > 100 µM (inactive) | > 100 µM (inactive) | > 100 µM (inactive) | > 100 µM (inactive) | > 100 µM (inactive) | > 100 µM (inactive) | > 100 µM (inactive) | > 100 µM (inactive) | > 100 µM (inactive) | > 100 µM (inactive) | > 100 µM (inactive) | > 100 µM (inactive) | > 100 µM (inactive) | > 100 µM (inactive) | > 100 µM (inactive) | – |
| CNC(=S)N(C1CCCCC1)C1CCCCC1 | 55.8 µM (inactive) | > 100 µM (inactive) | 90.6 µM (inactive) | > 100 µM (inactive) | 66.1 µM (inactive) | > 100 µM (inactive) | > 100 µM (inactive) | > 100 µM (inactive) | > 100 µM (inactive) | > 100 µM (inactive) | 98.4 µM (inactive) | > 100 µM (inactive) | 70.6 µM (inactive) | 76.9 µM (inactive) | > 100 µM (inactive) | 34.8 µM (inactive) | – | > 100 µM (inactive) | > 100 µM (inactive) | > 100 µM (inactive) |
| CSc1ccc(/C=C/C(=O)c2nc3ccccc3[nH]2)cc1 | 14.5 µM (inactive) | 24.3 µM (inactive) | 14.1 µM (inactive) | 14.2 µM (inactive) | 18.1 µM (inactive) | 4.45 µM (inactive) | 1.87 µM (inactive) | 14.5 µM (inactive) | 27.5 µM (inactive) | 20.1 µM (inactive) | 18.9 µM (inactive) | 10 µM (inactive) | 2.26 µM (inactive) | 18.1 µM (inactive) | 6.22 µM (inactive) | 17.8 µM (inactive) | 14.8 µM (inactive) | 16.1 µM (inactive) | 16.6 µM (inactive) | – |
| C[C@@H](c1ccccc1)C(CC#N)[C@H]1CCC[C@]1(O)C#Cc1ccc2c(c1)OCO2 (stereo partly drawn) | 16.7 µM (inactive) | 16.8 µM (inactive) | 15.8 µM (inactive) | 16.6 µM (inactive) | 18.2 µM (inactive) | 10.6 µM (inactive) | 16.8 µM (inactive) | 18.5 µM (inactive) | 18.1 µM (inactive) | 16 µM (inactive) | 16.6 µM (inactive) | 17.5 µM (inactive) | 15.8 µM (inactive) | 17.6 µM (inactive) | 16.6 µM (inactive) | 19.5 µM (inactive) | – | 16.1 µM (inactive) | 15.6 µM (inactive) | 14.4 µM (inactive) |
| C=C1N(C=O)C(C)(C)N(O)C1(C)C | > 100 µM (inactive) | > 100 µM (inactive) | > 100 µM (inactive) | > 100 µM (inactive) | > 100 µM (inactive) | > 100 µM (inactive) | > 100 µM (inactive) | > 100 µM (inactive) | > 100 µM (inactive) | > 100 µM (inactive) | > 100 µM (inactive) | > 100 µM (inactive) | > 100 µM (inactive) | > 100 µM (inactive) | > 100 µM (inactive) | > 100 µM (inactive) | – | > 100 µM (inactive) | > 100 µM (inactive) | > 100 µM (inactive) |
| Clc1ccc(-c2nnc(C34CC5CC(CC(C5)C3)C4)o2)cc1 | – | > 100 µM (inactive) | > 100 µM (inactive) | > 100 µM (inactive) | > 100 µM (inactive) | > 100 µM (inactive) | > 100 µM (inactive) | > 100 µM (inactive) | > 100 µM (inactive) | > 100 µM (inactive) | > 100 µM (inactive) | > 100 µM (inactive) | > 100 µM (inactive) | > 100 µM (inactive) | > 100 µM (inactive) | > 100 µM (inactive) | – | > 100 µM (inactive) | > 100 µM (inactive) | > 100 µM (inactive) |
| CCC/N=C1\S/C(=C/c2ccc(OC)c(OC)c2)C(=O)N1c1ccccc1 | > 100 µM (inactive) | 2.84 µM (inactive) | 16 µM (inactive) | 37 µM (inactive) | > 100 µM (inactive) | 7.91 µM (inactive) | – | > 100 µM (inactive) | 11.2 µM (inactive) | 93.1 µM (inactive) | 42.8 µM (inactive) | 20.6 µM (inactive) | 44.5 µM (inactive) | 31.8 µM (inactive) | > 100 µM (inactive) | 15.8 µM (inactive) | 74.8 µM (inactive) | 17.8 µM (inactive) | 12.6 µM (inactive) | – |
| C/C(=N\Nc1nc2ccccc2[nH]1)c1cnccn1 | 1.12 µM (active) | 0.619 µM (active) | 0.617 µM (active) | 0.652 µM (active) | 0.415 µM (active) | 0.713 µM (active) | – | 0.361 µM (active) | 0.607 µM (active) | 0.64 µM (active) | 0.231 µM (active) | 2.88 µM (inactive) | 0.447 µM (active) | 1.45 µM (inactive) | 0.822 µM (active) | 0.491 µM (active) | 6.04 µM (inactive) | 2.72 µM (inactive) | 0.296 µM (active) | 0.392 µM (active) |
| CCCCCCNC(=O)c1cc(C#Cc2cc(OC)ccc2OC)ccc1OC | > 100 µM (inactive) | – | > 100 µM (inactive) | – | 55.3 µM (inactive) | – | – | > 100 µM (inactive) | > 100 µM (inactive) | 47.8 µM (inactive) | > 100 µM (inactive) | > 100 µM (inactive) | > 100 µM (inactive) | > 100 µM (inactive) | 2.75 µM (inactive) | 58.9 µM (inactive) | 18.9 µM (inactive) | > 100 µM (inactive) | – | – |
| O=C(O)c1ccccc1/C=C1\Cc2ccccc2C1=O | > 100 µM (inactive) | > 100 µM (inactive) | > 100 µM (inactive) | > 100 µM (inactive) | 48.4 µM (inactive) | > 100 µM (inactive) | > 100 µM (inactive) | 91 µM (inactive) | – | > 100 µM (inactive) | > 100 µM (inactive) | – | > 100 µM (inactive) | 67.1 µM (inactive) | > 100 µM (inactive) | > 100 µM (inactive) | 19.3 µM (inactive) | > 100 µM (inactive) | > 100 µM (inactive) | > 100 µM (inactive) |
| CC1(C)OCC(COC(=O)NCn2cc(-c3ccccc3)nn2)O1 (stereo not drawn) | > 100 µM (inactive) | > 100 µM (inactive) | > 100 µM (inactive) | – | > 100 µM (inactive) | > 100 µM (inactive) | > 100 µM (inactive) | > 100 µM (inactive) | – | > 100 µM (inactive) | > 100 µM (inactive) | > 100 µM (inactive) | > 100 µM (inactive) | > 100 µM (inactive) | – | > 100 µM (inactive) | > 100 µM (inactive) | > 100 µM (inactive) | – | – |
| COc1cccc(C2c3cc4c(cc3OC(O)C2C)OCO4)c1OC (stereo not drawn) | 5.04 µM (inactive) | 17.4 µM (inactive) | – | 13.9 µM (inactive) | 6.11 µM (inactive) | 11.1 µM (inactive) | 2.98 µM (inactive) | 4.05 µM (inactive) | – | – | 3.18 µM (inactive) | 14.2 µM (inactive) | 2.14 µM (inactive) | 5.2 µM (inactive) | 5.97 µM (inactive) | 20.1 µM (inactive) | 10.1 µM (inactive) | 11.2 µM (inactive) | 2.79 µM (inactive) | 3.4 µM (inactive) |
| c1cc2nnc1SCCSCCCSCCS2 | > 100 µM (inactive) | 35.2 µM (inactive) | 34.6 µM (inactive) | > 100 µM (inactive) | > 100 µM (inactive) | 20 µM (inactive) | 2.86 µM (inactive) | > 100 µM (inactive) | > 100 µM (inactive) | > 100 µM (inactive) | > 100 µM (inactive) | 29.6 µM (inactive) | > 100 µM (inactive) | > 100 µM (inactive) | > 100 µM (inactive) | > 100 µM (inactive) | – | 56.8 µM (inactive) | > 100 µM (inactive) | > 100 µM (inactive) |
| O=c1[nH]c2nccn2c2c1SCCN2 | > 100 µM (inactive) | > 100 µM (inactive) | > 100 µM (inactive) | > 100 µM (inactive) | > 100 µM (inactive) | > 100 µM (inactive) | > 100 µM (inactive) | > 100 µM (inactive) | – | > 100 µM (inactive) | > 100 µM (inactive) | – | > 100 µM (inactive) | > 100 µM (inactive) | > 100 µM (inactive) | > 100 µM (inactive) | > 100 µM (inactive) | > 100 µM (inactive) | > 100 µM (inactive) | > 100 µM (inactive) |

Source: ChEMBL document CHEMBL1201862, “PubChem BioAssay data set” (2004)
